# Measurements reported in patent publication US9199983B2, “3-aryl-6-aryl-[1,2,4]triazolo[4,3-α]pyridines as inhibitors of cell proliferation and the use thereof” (priority 2010, dated 2015).
# Counter-ions that a name gives are not always drawn.
# Key:
# [1] = test system: breast cancer cell line T47D; assay: MTT cancer cell cytotoxicity assay, T47D; type: cell-based, human; conditions: T47D cells, 48-72 h
# Procedure, shortened: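 Human T47D breast cancer cells, cultured per ATCC recommendations with 10% fetal bovine serum and penicillin/streptomycin, were plated at 3000 cells/well in 96-well plates. After overnight attachment they were exposed in triplicate to compounds (10 μM to 1 nM) for 48-72 h. MTT was then added for 4 h and the formazan dissolved in DMSO. Absorbance at 550 nm minus 660 nm was fitted in Prism 5 to give IC50.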
# caspase-3 activation = assay: Caspase-3 activation (apoptosis induction) in T-47D cells; type: cell-based; conditions: Homo sapiens; T47D cells, 24 h treatment; read-out: EC50 to induce caspase-3 activation, T47D
# Procedure: Identification of 3-(2-methoxyphenyl)-6-(4-methoxyphenyl)-[1,2,4]triazolo[4,3-a]pyridine and analogs as inducers of apoptosis in solid tumor cells
# Human breast cancer cell line T-47D and lung cancer cell line A549, growing in DMEM/F12+10% FBS media were seeded to a density of 20000 cells/well in 96-well cell culture plate and grew overnight (18-24 h) in CO2 cell culture incubator at 37° C. Next day the medium were removed by aspiration and […] fresh growth media was added to each well followed by […] of growth media containing 10× concentration of reference or testing compounds with 10% DMSO. Twenty four hours later, cell culture plates were centrifuged at 1000 g for 5 min and the supernatant was removed by emptying contents into a reservoir. Fifty μl of Lysis Buffer (10 mM Tris, pH7.5, 0.1M NaCl, 1 Mm EDTA, 0.01% Triton X-100) was added to each well and the plates were incubated with gentle agitation on an orbital shaker at 4° C. for 30 min. The plates were then centrifuged at 1000 g for 10 min at 4° C. and 20 μl of the supernatant was transferred from each well to a corresponding well in a black 384-well. Twenty μl of caspase-3 assay buffer (20 mM PIPES, pH7.4, 4 Mm EDTA and 0.2% CHAPS) containing 20 μM fluorogenic caspase-3 substrate ((Ac-DEVD)2-R110, AnaSpec Cat #60304-5) was added to each well. The samples were mixed by agitation and incubated at 37° C. for 3 h. The fluorescent intensity of each well was read on a fluorescent plate reader (Varioskan Flash, Thermo Fisher Scientific) with excitation wavelength at 496 nm and emission wavelength at 520 nm. The activity of compounds on caspase-3 activation was determined by plotting the relative fluorescent unit (RFU) against the testing concentrations of the compounds. The EC50 values were determined by fitting the above responding curves into Prism sigmoidal dose-response equation (GraphPad Software, Inc).
# [2] = test system: liver cancer cell line HepG2; assay: MTT cancer cell cytotoxicity assay, HepG2; type: cell-based, human; conditions: HepG2 cells, 48-72 h
# Procedure, shortened: (§1)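 Seeding: HepG2 and A549 at 3000, SMMC7721 at 5000, B16F10 at 2000 cells/well, attached overnight. Compounds (10 μM to 1 nM, triplicate) were applied for 48-72 h at 37 °C, followed by 4 h MTT. A550 minus A660 was fitted for IC50, with untreated wells as maximum and reference-drug total kill as background.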
# [3] = test system: liver cancer cell line SMMC7721; assay: MTT cancer cell cytotoxicity assay, SMMC7721; type: cell-based, human; conditions: 48-72 h
# Procedure, shortened: as §1
# [4] = test system: mouse melanoma cell line B16F10; assay: MTT cancer cell cytotoxicity assay, B16F10; type: cell-based; conditions: 48-72 h
# Procedure: Identification of 3-(2-methoxyphenyl)-6-(4-methoxyphenyl)-[1,2,4]triazolo[4,3-a]pyridine and analogs as inhibitors of cell proliferation that were evaluated with standard MTT cancer cell cytotoxicity assay (IC50)
# Human lung cancer cell line A549, breast cancer cell line T47D, liver cancer cell lines HepG2 and SMMC7721 as well as a mouse melanoma cell line B16F10 were used in the study. The cells were cultured in corresponding growth media recommended by American Type Culture Collection (ATCC) with the supplementation of penicillin G (100 U/ml)/streptomycin (100 µg/ml), and 10% fetal bovine serum (Hangzhou Sijiqing Biological Engineering Materials, Co., Ltd. China) at 37° C. in a humidified atmosphere containing 5% CO2. Cells at about 80% confluency were harvested by trypsinization. Cells were centrifuged, re-suspended in fresh growth media and counted. Corresponding numbers of cells were seeded to 96-well cell culture plates (HepG2 cell, T-47D and A549 cells at 3000 cells/well, SMMC-7721 cells at 5000 cells/well and B16F10 cells at 2000 cells/well) in a total volume of […]. Cells were incubated in CO2 incubator over night to allow the cells to attach. In next day, […] of medium containing testing (from 10 μM to 1 nM) or reference compounds was added to each well of the cells. Media without compound were used as 100% control. Cells were treated with each concentration of compounds in triplicates to ensure data accuracy. Cells were incubated with compounds in CO2 incubator for an additional 48-72 h at 37° C. After incubation, cells were removed from the CO2 incubator and […] of 5 mg/ml MTT (3-(4,5-dimethylthiazole-2-yl)-2,5-diphenyltetrazoliumbromide, Sigma) solution in PBS was added to each well. Cells were returned to CO2 incubator and incubated for additional 4 h. After the incubation, media were removed by aspiration and […] DMSO was added to each well. Plates were sealed with aluminum foil and shaked mildly on an orbital shaker for 10 min at room temperature. The absorption was measured at 550 nm with a plate reader (Varioskan Flash, Thermo Fisher Scientific) with 660 nm reading used as background control. The relative absorbance readings were calculated by subtracting readings at 660 nm from that at 550 nm. The relative absorbance was plotted again the concentrations of the testing compounds and the plots were fitted with a one-site lg(IC50) equation using Prism 5 software (GraphPad Software, Inc). The equation used in the curve fitting is as follows: relative absorbance reading=background reading+(maximal reading−brackground reading)/(1+10 ^(compound concentration-log IC50)). The background reading used in the calculation was obtained with 100% cell death using a reference anticancer drug, whereas the maximal reading was obtained in the well with no added compound. The IC50 value calculated from the equation represents the cytotoxic potency of a particular compound.
# [5] = test system: Human lung cancer cell line A549; assay: MTT cancer cell cytotoxicity assay, A549; type: cell-based; conditions: A549 cells, 48-72 h
# Procedure, shortened: as §1
# [6] = Homo sapiens, SMMC-7721, SMMC7721 cells
# [7] = Mus musculus, B16-F10, B16F10 cells
EC50 (caspase-3 activation),Structure (SMILES),IC50 ([1]; Homo sapiens),IC50 ([2]; Homo sapiens),"IC50 [3, 6]","IC50 [4, 7]",IC50 ([5]; Homo sapiens),IC50 [1],IC50 [2],IC50 ([3]; SMMC7721 cells),IC50 ([4]; B16F10 cells),IC50 [5]
23 nM,"COc1ccc(-c2ccc3nnc(-c4ccccc4OC)n3c2)cc1N [Example 46, 6-(3-Amino-4-methoxyphenyl)-3-(2-methoxyphenyl)-[1,2,4]triazolo[4,3-a]pyridine hydrochloride]",9.7 nM,9.9 nM,5.7 nM,3.7 nM,9.4 nM,–,–,–,–,–
9.1 nM,"COc1ccc(-c2ccc3nnc(-c4ccc(C)cc4OC)n3c2)cc1F [Example 53, 6-(3-Fluoro-4-methoxyphenyl)-3-(2-methoxy-4-methylphenyl)-[1,2,4]triazolo[4,3-a]pyridine]",6.7 nM,5.7 nM,8.3 nM,6.2 nM,7.4 nM,–,–,–,–,–
16 nM,"COc1ccc(-c2ccc3nnc(-c4ccccc4OC)n3c2)cc1O [Example 20, 6-(3-Hydroxy-4-methoxyphenyl)-3-(2-methoxyphenyl)-[1,2,4]triazolo[4,3-a]pyridine]",18 nM,11 nM,> 10000 nM,18 nM,13 nM,–,–,–,–,–
74 nM,"CNc1ccc(-c2ccc3nnc(-c4ccccc4OC)n3c2)cc1 [Example 48, 6-(4-Methylaminophenyl)-3-(2-methoxyphenyl)-[1,2,4]triazolo[4,3-a]pyridine hydrochloride]",18 nM,31 nM,11 nM,–,26 nM,–,–,–,–,–
–,"COc1ccccc1-c1nnc2ccc(-c3ccc(OC(F)(F)F)cc3)cn12 [Example 11, 3-(2-Methoxyphenyl)-6-(4-trifluoromethoxyphenyl)-[1,2,4]trizolo[4,3-a]pyridine]",–,–,–,–,–,> 10000 nM,5290 nM,2910 nM,5000 nM,> 10000 nM
–,"COc1ccccc1-c1nnc2ccc(-c3ccc(C(F)(F)F)cc3)cn12 [Example 27, 3-(2-Methoxyphenyl)-6-(4-trifluoromethylphenyl)-[1,2,4]triazolo[4,3-a]pyridine]",4260 nM,2640 nM,2250 nM,3820 nM,9630 nM,–,–,–,–,–
–,"COc1cc(Cl)ccc1-c1nnc2ccc(-c3ccc(C)c(N)c3)cn12 [Example 90, 6-(3-Amino-4-methylphenyl)-3-(4-chloro-2-methoxyphenyl)-[1,2,4]triazolo[4,3-a]pyridine]",5.5 nM,5.4 nM,2.3 nM,4.6 nM,7.1 nM,–,–,–,–,–
–,"CCOc1ccc(-c2ccc3nnc(-c4ccccc4OC)n3c2)cc1 [Example 38, 6-(4-Ethoxyphenyl)-3-(2-methoxyphenyl)-[1,2,4]triazolo[4,3-a]pyridine]",74 nM,80 nM,27 nM,129 nM,49 nM,–,–,–,–,–
–,"COc1ccccc1-c1nnc2ccc(-c3ccc([N+](=O)[O-])cc3)cn12 [Example 39, 3-(2-Methoxyphenyl)-6-(4-nitrophenyl)-[1,2,4]triazolo[4,3-a]pyridine]",> 10000 nM,3250 nM,5440 nM,> 10000 nM,3000 nM,–,–,–,–,–
117 nM,"COc1ccc(-c2ccc3nnc(-c4ccc(OC)cc4OC)n3c2)cc1 [Example 71, 3-(2,4-Dimethoxyphenyl)-6-(4-methoxyphenyl)-[1,2,4]triazolo[4,3-a]pyridine]",22 nM,15 nM,8.7 nM,–,16 nM,–,–,–,–,–
–,"CNc1ccc(-c2ccc3nnc(-c4ccc(Cl)cc4OC)n3c2)cc1 [Example 88, 3-(4-Chloro-2-methoxyphenyl)-6-(4-methylaminophenyl)-[1,2,4]triazolo[4,3-a]pyridine]",3.6 nM,6 nM,1.8 nM,5.1 nM,4.4 nM,–,–,–,–,–
86 nM,"COc1ccccc1-c1nnc2ccc(-c3ccc(N(C)C)cc3)cn12 [Example 17, 6-(4-Dimethylaminophenyl)-3-(2-methoxyphenyl)-[1,2,4]triazolo[4,3-a]pyridine]",65 nM,48 nM,14 nM,–,29 nM,–,–,–,–,–
